Reference: the OligoGym collection
Oligonucleotides are written 5' to 3', each unit as a sugar letter and its base; * is a phosphorothioate linkage, no mark a phosphodiester; rarer units and linkages stand in square brackets, end groups in braces. Plain capitals give the bases only. Oligonucleotides are given in HELM: sugar(base)linkage, 5' to 3'; d 2'-deoxyribose, r ribose, m 2'-O-methylribose, p phosphate. ss, as = sense and antisense strand; d = 2'-deoxy (DNA); r = 2'-OH (RNA)

Each substance was assayed against SOST (assay: reporter assay of Huesken 2005). Settings: siRNA.
Note: test concentration or dose not given here.

Substance	normalised inhibition (eCFP-eYFP dual reporter) [%]
RNA1{r(U)p.r(G)p.r(C)p.r(A)p.r(A)p.r(G)p.r(C)p.r(G)p.r(C)p.r(C)p.r(U)p.r(C)p.r(A)p.r(C)p.r(C)p.r(C)p.r(G)p.r(C)p.r(U)p.d(T)p.d(T)}|RNA2{r(A)p.r(G)p.r(C)p.r(G)p.r(G)p.r(G)p.r(U)p.r(G)p.r(A)p.r(G)p.r(G)p.r(C)p.r(G)p.r(C)p.r(U)p.r(U)p.r(G)p.r(C)p.r(A)p.d(C)p.d(T)}$$$RNA1{StrandType:ss}|RNA2{StrandType:as}$	66.2
RNA1{r(U)p.r(G)p.r(C)p.r(G)p.r(G)p.r(C)p.r(C)p.r(C)p.r(G)p.r(G)p.r(C)p.r(G)p.r(C)p.r(G)p.r(C)p.r(C)p.r(U)p.r(G)p.r(C)p.d(T)p.d(T)}|RNA2{r(G)p.r(C)p.r(A)p.r(G)p.r(G)p.r(C)p.r(G)p.r(C)p.r(G)p.r(C)p.r(C)p.r(G)p.r(G)p.r(G)p.r(C)p.r(C)p.r(G)p.r(C)p.r(A)p.d(C)p.d(T)}$$$RNA1{StrandType:ss}|RNA2{StrandType:as}$	52.1
RNA1{r(U)p.r(U)p.r(C)p.r(A)p.r(C)p.r(C)p.r(C)p.r(G)p.r(C)p.r(U)p.r(A)p.r(C)p.r(G)p.r(U)p.r(G)p.r(A)p.r(C)p.r(C)p.r(G)p.d(T)p.d(T)}|RNA2{r(C)p.r(G)p.r(G)p.r(U)p.r(C)p.r(A)p.r(C)p.r(G)p.r(U)p.r(A)p.r(G)p.r(C)p.r(G)p.r(G)p.r(G)p.r(U)p.r(G)p.r(A)p.r(A)p.d(G)p.d(T)}$$$RNA1{StrandType:ss}|RNA2{StrandType:as}$	57.5

The substances below were run against UBE2V1 (assay: reporter assay of Huesken 2005). Settings: siRNA.

Substance	normalised inhibition (eCFP-eYFP dual reporter) [%]
sense rArArArGrGrArGrUrArArArArGrUrCrCrCrUrCdTdT / antisense rGrArGrGrGrArCrUrUrUrUrArCrUrCrCrUrUrUdGdC	65.6
sense rArArArUrUrUrCrArCrUrGrCrArArArGrGrArGdTdT / antisense rCrUrCrCrUrUrUrGrCrArGrUrGrArArArUrUrUdTdC	45.8
sense rArArCrCrGrArArUrArUrArCrArGrCrCrUrUrAdTdT / antisense rUrArArGrGrCrUrGrUrArUrArUrUrCrGrGrUrUdTdT	96.1
sense rArArCrCrUrArGrArArArArUrUrUrCrArCrUrGdTdT / antisense rCrArGrUrGrArArArUrUrUrUrCrUrArGrGrUrUdCdA	49.4
sense rArArGrArGrCrCrArUrArUrCrArGrUrGrCrUrAdTdT / antisense rUrArGrCrArCrUrGrArUrArUrGrGrCrUrCrUrUdGdG	84.4
sense rArArUrArUrArCrArGrCrCrUrUrArArArArUrAdTdT / antisense rUrArUrUrUrUrArArGrGrCrUrGrUrArUrArUrUdCdG	82.9
sense rArArUrGrGrArGrUrGrGrUrGrGrArCrCrCrArAdTdT / antisense rUrUrGrGrGrUrCrCrArCrCrArCrUrCrCrArUrUdAdG	83.5
sense rArArUrUrCrArUrArUrArGrCrArUrCrArArArGdTdT / antisense rCrUrUrUrGrArUrGrCrUrArUrArUrGrArArUrUdCdT	70
sense rArCrCrUrArGrArArArArUrUrUrCrArCrUrGrCdTdT / antisense rGrCrArGrUrGrArArArUrUrUrUrCrUrArGrGrUdTdC	36.5
sense rArGrArArArGrGrArGrUrArGrGrArGrArUrGrGdTdT / antisense rCrCrArUrCrUrCrCrUrArCrUrCrCrUrUrUrCrUdGdG	58.6
sense rArGrArArGrGrCrCrArGrArArArGrGrArGrUrAdTdT / antisense rUrArCrUrCrCrUrUrUrCrUrGrGrCrCrUrUrCrUdTdC	86.1
sense rArGrArCrUrUrGrArArCrCrUrArGrArArArArUdTdT / antisense rArUrUrUrUrCrUrArGrGrUrUrCrArArGrUrCrUdTdC	71.4
sense rArGrArGrCrCrArUrArUrCrArGrUrGrCrUrArGdTdT / antisense rCrUrArGrCrArCrUrGrArUrArUrGrGrCrUrCrUdTdG	90.3
sense rArGrArUrGrGrArCrArGrGrGrArUrGrArUrArAdTdT / antisense rUrUrArUrCrArUrCrCrCrUrGrUrCrCrArUrCrUdTdG	90
sense rArGrCrUrGrGrGrGrUrCrUrArGrArArGrArUrGdTdT / antisense rCrArUrCrUrUrCrUrArGrArCrCrCrCrArGrCrUdAdA	73
sense rArGrGrArArGrArCrUrUrGrArArCrCrUrArGrAdTdT / antisense rUrCrUrArGrGrUrUrCrArArGrUrCrUrUrCrCrUdTdC	78
sense rArGrGrArGrArUrGrGrCrArCrArGrUrUrArGrCdTdT / antisense rGrCrUrArArCrUrGrUrGrCrCrArUrCrUrCrCrUdAdC	60.9
sense rArGrGrArGrUrArGrGrArGrArUrGrGrCrArCrAdTdT / antisense rUrGrUrGrCrCrArUrCrUrCrCrUrArCrUrCrCrUdTdT	92.3
sense rArGrUrArArArArGrUrCrCrCrUrCrGrCrArArUdTdT / antisense rArUrUrGrCrGrArGrGrGrArCrUrUrUrUrArCrUdCdC	91
sense rArGrUrCrCrCrUrCrGrCrArArUrUrUrCrCrGrAdTdT / antisense rUrCrGrGrArArArUrUrGrCrGrArGrGrGrArCrUdTdT	96
sense rArGrUrUrCrUrArArUrGrGrArGrUrGrGrUrGrGdTdT / antisense rCrCrArCrCrArCrUrCrCrArUrUrArGrArArCrUdAdT	56.8
sense rArUrUrUrCrArCrUrGrCrArArArGrGrArGrUrAdTdT / antisense rUrArCrUrCrCrUrUrUrGrCrArGrUrGrArArArUdTdT	95

Substance	normalised inhibition (eCFP-eYFP dual reporter) [%]
sense rCrArArArGrUrUrGrUrCrCrUrGrCrArArGrArGdTdT / antisense rCrUrCrUrUrGrCrArGrGrArCrArArCrUrUrUrGdAdT	71.5
sense rCrArArGrArGrCrUrUrCrGrGrCrGrCrCrUrArAdTdT / antisense rUrUrArGrGrCrGrCrCrGrArArGrCrUrCrUrUrGdCdA	84.1
sense rCrArArUrUrUrCrCrGrArCrUrGrUrUrGrGrArAdTdT / antisense rUrUrCrCrArArCrArGrUrCrGrGrArArArUrUrGdCdG	95.3
sense rCrArGrArArUrUrCrArUrArUrArGrCrArUrCrAdTdT / antisense rUrGrArUrGrCrUrArUrArUrGrArArUrUrCrUrGdCdC	90
sense rCrArGrUrGrCrUrArGrCrArArArArUrGrGrCrAdTdT / antisense rUrGrCrCrArUrUrUrUrGrCrUrArGrCrArCrUrGdAdT	87.5
sense rCrArUrArUrArGrCrArUrCrArArArGrUrUrGrUdTdT / antisense rArCrArArCrUrUrUrGrArUrGrCrUrArUrArUrGdAdA	77.7
sense rCrCrCrUrCrGrCrArArUrUrUrCrCrGrArCrUrGdTdT / antisense rCrArGrUrCrGrGrArArArUrUrGrCrGrArGrGrGdAdC	84.5
sense rCrCrUrArArUrGrArUrGrUrCrUrArArArGrArAdTdT / antisense rUrUrCrUrUrUrArGrArCrArUrCrArUrUrArGrGdCdG	95.1
sense rCrCrUrCrArGrCrCrGrCrCrCrGrArArGrGrArCdTdT / antisense rGrUrCrCrUrUrCrGrGrGrCrGrGrCrUrGrArGrGdGdA	55.2
sense rCrCrUrCrCrArArGrArArCrArArUrUrUrArUrGdTdT / antisense rCrArUrArArArUrUrGrUrUrCrUrUrGrGrArGrGdCdC	63.1
sense rCrCrUrUrUrGrUrArArGrArUrUrUrGrUrArArCdTdT / antisense rGrUrUrArCrArArArUrCrUrUrArCrArArArGrGdGdG	63.8
sense rCrGrArArUrArUrArCrArGrCrCrUrUrArArArAdTdT / antisense rUrUrUrUrArArGrGrCrUrGrUrArUrArUrUrCrGdGdT	89.4
sense rCrUrArGrArArArArUrUrUrCrArCrUrGrCrArAdTdT / antisense rUrUrGrCrArGrUrGrArArArUrUrUrUrCrUrArGdGdT	96
sense rCrUrArGrArArGrArUrGrArCrGrArArGrArCrAdTdT / antisense rUrGrUrCrUrUrCrGrUrCrArUrCrUrUrCrUrArGdAdC	88.8
sense rCrUrUrGrArArCrCrUrArGrArArArArUrUrUrCdTdT / antisense rGrArArArUrUrUrUrCrUrArGrGrUrUrCrArArGdTdC	53.5
sense rGrArArArArUrUrUrCrArCrUrGrCrArArArGrGdTdT / antisense rCrCrUrUrUrGrCrArGrUrGrArArArUrUrUrUrCdTdA	83.7
sense rGrArArGrArArCrUrCrGrArArGrArArGrGrCrCdTdT / antisense rGrGrCrCrUrUrCrUrUrCrGrArGrUrUrCrUrUrCdCdA	53.8
sense rGrArArGrArUrGrArCrGrArArGrArCrArUrGrAdTdT / antisense rUrCrArUrGrUrCrUrUrCrGrUrCrArUrCrUrUrCdTdA	95
sense rGrArGrCrCrArUrArUrCrArGrUrGrCrUrArGrCdTdT / antisense rGrCrUrArGrCrArCrUrGrArUrArUrGrGrCrUrCdTdT	90.9
sense rGrCrArArGrArGrCrUrUrCrGrGrCrGrCrCrUrAdTdT / antisense rUrArGrGrCrGrCrCrGrArArGrCrUrCrUrUrGrCdAdG	82.6
sense rGrCrArGrArArUrUrCrArUrArUrArGrCrArUrCdTdT / antisense rGrArUrGrCrUrArUrArUrGrArArUrUrCrUrGrCdCdA	82
sense rGrCrCrArUrArUrCrArGrUrGrCrUrArGrCrArAdTdT / antisense rUrUrGrCrUrArGrCrArCrUrGrArUrArUrGrGrCdTdC	92.1
